Columns and labels:
Phakopsora Pachyrhizi = experiment: Fungicidal activity against Phakopsora pachyrhizi / soybean / leaf disc preventative (Asian soybean rust); assay type: in vivo; details: foliar, 200 ppm in the applied formulation, soybean leaf disks, compared to untreated control leaf disks, read-out: disease control
How it was run: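 Preventative soybean leaf-disc test: discs on water agar sprayed with diluted formulated compound, inoculated one day later with spores on the lower surface. Held 24–36 h dark at 20°C, 75% rh, then 12 h light/day; percent disease control versus untreated discs scored 12–14 days after application.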

[1] = test system: Puccinia recondita f. Sp. Tritici; experiment: Fungicidal activity against Puccinia recondita f. sp. tritici / wheat / leaf disc curative (brown rust); assay type: in vivo; details: foliar, 24 h, 200 ppm in the applied formulation, wheat leaf segments, curative (applied 1 day after inoculation), compared to untreated control leaf disks, read-out: disease control
How it was run: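 % disease control vs untreated, scored 6–8 d post-application. Wheat cv. Kanzler segments, spore-inoculated, dark 19° C/75% RH; formulated cpd applied 1 d post-inoc; then 19° C, 75% RH, 12 h L/12 h D.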

[2] = test system: Glomerella lagenarium (Colletotrichum lagenarium); experiment: Fungicidal activity against Glomerella lagenarium (Colletotrichum lagenarium) liquid culture / cucumber / preventative (anthracnose); assay type: cell-based; details: Colletotrichum orbiculare; 20 ppm in the applied formulation; liquid culture (PDB), growth inhibition measured photometrically after 3 to 4 days; compared to untreated control; read-out: disease control
How it was run: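 Photometric read-out of fungal growth after 2–7 days, expressed as percent antifungal activity versus untreated check. Cryo-stored conidia in PDB; compound at 20 ppm; dark, 24 °C, 96% RH.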

[3] = test system: Puccinia recondita f. Sp. Tritici; experiment: Fungicidal activity against Puccinia recondita f. sp. tritici / wheat / leaf disc preventative (brown rust); assay type: in vivo; details: foliar, 200 ppm in the applied formulation, wheat leaf segments, preventative, compared to untreated control leaf disks, read-out: disease control
How it was run: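 Preventative leaf-segment test, wheat cv. Kanzler on water agar. Spray compound at 200 ppm, inoculate with spores 1 day later; 19° C., 75% rh, 12/12 h light. Read-out: % disease control vs untreated, 7 to 9 days after application.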

CCCON(Cc1ccc(-c2noc(C(F)(F)F)n2)cc1)C(=O)C1(C)COC1 [Compound 1.309, 3-methyl-N-propoxy-N-[[4-[5-(trifluoromethyl)-1,2,4-oxadiazol-3-yl]phenyl]methyl]-oxetane-3-carboxamide]
≥ 80%: pest or weed control at 200 ppm (Phakopsora Pachyrhizi) | pest or weed control at 200 ppm [1] | inhibition of growth at 20 ppm [2] | pest or weed control at 200 ppm [3]

CC(C)(CCl)C(=O)N(Cc1ccc(-c2noc(C(F)(F)F)n2)cc1)C1CC1 [Compound 1.110, 3-chloro-N-cyclopropyl-2,2-dimethyl-N-[[4-[5-(trifluoromethyl)-1,2,4-oxadiazol-3-yl]phenyl]methyl]-propanamide]
≥ 80%: pest or weed control at 200 ppm (Phakopsora Pachyrhizi) | pest or weed control at 200 ppm [1] | inhibition of growth at 20 ppm [2] | pest or weed control at 200 ppm [3]

C=CCN(Cc1ccc(-c2noc(C(F)(F)F)n2)cc1)C(=O)C(C)C [Compound 1.483, N-allyl-2-methyl-N-[[4-[5-(trifluoromethyl)-1,2,4-oxadiazol-3-yl]phenyl]methyl]-propanamide]
≥ 80%: pest or weed control at 200 ppm (Phakopsora Pachyrhizi) | pest or weed control at 200 ppm [1] | inhibition of growth at 20 ppm [2] | pest or weed control at 200 ppm [3]

C#CCN(Cc1ccc(-c2noc(C(F)(F)F)n2)cc1)C(=O)CC=CC [Compound 1.180, N-prop-2-ynyl-N-[[4-[5-(trifluoromethyl)-1,2.4-oxadiazol-3-yl]phenyl]methyl]-pent-3-enamide]
≥ 80%: pest or weed control at 200 ppm (Phakopsora Pachyrhizi) | pest or weed control at 200 ppm [1] | inhibition of growth at 20 ppm [2] | pest or weed control at 200 ppm [3]

CON(Cc1ccc(-c2noc(C(F)(F)F)n2)cc1F)C(=O)C1CCCO1 (stereo not shown) [Compound 1.563, N-[[2-fluoro-4-[5-(trifluoromethyl)-1,2,4-oxadiazol-3-yl]phenyl]methyl]-N-methoxy-tetrahydrofuran-2-carboxamide]
≥ 80%: pest or weed control at 200 ppm (Phakopsora Pachyrhizi) | pest or weed control at 200 ppm [1] | inhibition of growth at 20 ppm [2] | pest or weed control at 200 ppm [3]

CCC(COC)C(=O)N(Cc1ccc(-c2noc(C(F)(F)F)n2)cc1)C1CC1 (stereo not shown) [Compound 1.134, N-cyclopropyl-2-(methoxymethyl)-N-[[4-[5-(trifluoromethyl)-1,2,4-oxadiazol-3-yl]phenyl]methyl]-butanamide]
≥ 80%: pest or weed control at 200 ppm (Phakopsora Pachyrhizi) | pest or weed control at 200 ppm [1] | inhibition of growth at 20 ppm [2] | pest or weed control at 200 ppm [3]

C=CCN(Cc1ccc(-c2noc(C(F)(F)F)n2)cc1)C(=O)CCOC [Compound 1.476, N-allyl-3-methoxy-N-[[4-[5-(trifluoromethyl)-1,2,4-oxadiazol-3-yl]phenyl]methyl]-propanamide]
≥ 80%: pest or weed control at 200 ppm (Phakopsora Pachyrhizi) | pest or weed control at 200 ppm [1] | inhibition of growth at 20 ppm [2] | pest or weed control at 200 ppm [3]

O=C(C1CC1(Cl)Cl)N(Cc1ccc(-c2noc(C(F)(F)F)n2)cc1)C1CC1 (stereo not shown) [Compound 1.125, 2,2-dichloro-N-cyclopropyl-N-[[4-[5-(trifluoromethyl)-1,2,4-oxadiazol-3-yl]phenyl]methyl]-cyclopropane-carboxamide]
≥ 80%: pest or weed control at 200 ppm (Phakopsora Pachyrhizi) | pest or weed control at 200 ppm [1] | inhibition of growth at 20 ppm [2] | pest or weed control at 200 ppm [3]

O=C(ON(Cc1ccc(-c2noc(C(F)(F)F)n2)cc1)C(=O)C1CC1)C1CC1 [Compound 1.608, [cyclopropanecarbonyl-[[4-[5-(trifluoromethyl)-1,2,4-oxadiazol-3-yl]phenyl]methyl]-amino]-cyclopropane-carboxylate]
≥ 80%: pest or weed control at 200 ppm (Phakopsora Pachyrhizi) | pest or weed control at 200 ppm [1] | inhibition of growth at 20 ppm [2] | pest or weed control at 200 ppm [3]

CN(Cc1ccc(-c2noc(C(F)(F)F)n2)cc1)C(=O)COC(F)F [Compound 1.595, 2-(difluoromethoxy)-N-methyl-N-[[4-[5-(trifluoromethyl)-1,2,4-oxadiazol-3-yl]phenyl]methyl]-acetamide]
≥ 80%: pest or weed control at 200 ppm (Phakopsora Pachyrhizi) | pest or weed control at 200 ppm [1] | inhibition of growth at 20 ppm [2] | pest or weed control at 200 ppm [3]

COCCN(Cc1ccc(-c2noc(C(F)(F)F)n2)cc1)C(=O)C1CCC1 [Compound 1.337, N-(2-methoxyethyl)-N-[[4-[5-(trifluoromethyl)-1,2,4-oxadiazol-3-yl]phenyl]methyl]-cyclobutane-carboxamide]
≥ 80%: pest or weed control at 200 ppm (Phakopsora Pachyrhizi) | pest or weed control at 200 ppm [1] | inhibition of growth at 20 ppm [2] | pest or weed control at 200 ppm [3]

COCCC(=O)ON(Cc1ccc(-c2noc(C(F)(F)F)n2)cc1)C(=O)CCOC [Compound 1.759, [3-methoxy-propanoyl-[[4-[5-(trifluoromethyl)-1,2,4-oxadiazol-3-yl]phenyl]methyl]-amino] 3-methoxypropanoate]
≥ 80%: pest or weed control at 200 ppm (Phakopsora Pachyrhizi) | pest or weed control at 200 ppm [1] | inhibition of growth at 20 ppm [2] | pest or weed control at 200 ppm [3]

CCON(Cc1ccc(-c2noc(C(F)(F)F)n2)cc1)C(=O)N(C)OC [Compound 3.7, 1-ethoxy-3-methoxy-3-methyl-1-[[4-[5-(trifluoromethyl)-1,2,4-oxadiazol-3-yl]phenyl]methyl]urea]
≥ 80%: pest or weed control at 200 ppm (Phakopsora Pachyrhizi) | pest or weed control at 200 ppm [1] | inhibition of growth at 20 ppm [2] | pest or weed control at 200 ppm [3]

CON(Cc1c(F)cc(-c2noc(C(F)(F)F)n2)cc1F)C(=O)C1CCCO1 (stereo not shown) [Compound 1.597, N-[[2,6-difluoro-4-[5-(trifluoromethyl)-1,2,4-oxadiazol-3-yl]phenyl]methyl)-N-methoxy-tetrahydrofuran-2-carboxamide]
≥ 80%: pest or weed control at 200 ppm (Phakopsora Pachyrhizi) | pest or weed control at 200 ppm [1] | inhibition of growth at 20 ppm [2] | pest or weed control at 200 ppm [3]

C=CC(=O)N(Cc1ccc(-c2noc(C(F)(F)F)n2)cc1)C(C)CC (stereo not shown) [Compound 1.387, N-sec-butyl-N-[[4-[5-(trifluoromethyl)-1,2,4-oxadiazol-3-yl]phenyl]methyl]-prop-2-enamide]
≥ 80%: pest or weed control at 200 ppm (Phakopsora Pachyrhizi) | pest or weed control at 200 ppm [1] | inhibition of growth at 20 ppm [2] | pest or weed control at 200 ppm [3]

CC1CC1C(=O)N(C)Cc1ccc(-c2noc(C(F)(F)F)n2)cc1 (stereo not shown) [Compound 1.520, N,2-dimethyl-N-[[4-[5-(trifluoromethyl)-1,2,4-oxadiazol-3-yl]phenyl]methyl]-cyclopropane-carboxamide]
≥ 80%: pest or weed control at 200 ppm (Phakopsora Pachyrhizi) | pest or weed control at 200 ppm [1] | inhibition of growth at 20 ppm [2] | pest or weed control at 200 ppm [3]

CON(Cc1ccc(-c2noc(C(F)(F)F)n2)cc1)C(=O)CCCCC(F)(F)F [Compound 1.53, 6,6,6-trifluoro-N-methoxy-N-[[4-[5-(trifluoromethyl)-1,2,4-oxadiazol-3-yl]phenyl]methyl]-hexanamide]
≥ 80%: pest or weed control at 200 ppm (Phakopsora Pachyrhizi) | pest or weed control at 200 ppm [1] | inhibition of growth at 20 ppm [2] | pest or weed control at 200 ppm [3]

CN(Cc1ccc(-c2noc(C(F)(F)F)n2)cc1)C(=O)C1(C)COC1 [Compound 1.527, N,3-dimethyl-N-[[4-[5-(trifluoromethyl)-1,2,4-oxadiazol-3-yl]phenyl]methyl]-oxetane-3-carboxamide]
≥ 80%: pest or weed control at 200 ppm (Phakopsora Pachyrhizi) | pest or weed control at 200 ppm [1] | inhibition of growth at 20 ppm [2] | pest or weed control at 200 ppm [3]

CCCON(Cc1ccc(-c2noc(C(F)(F)F)n2)cc1)C(=O)C1CCCN1C(C)=O (stereo not shown) [Compound 1.314, 1-acetyl-N-propoxy-N-[[4-[5-(trifluoromethyl)-1,2,4-oxadiazol-3-yl]phenyl]methyl]-pyrrolidine-2-carboxamide]
≥ 80%: pest or weed control at 200 ppm (Phakopsora Pachyrhizi) | pest or weed control at 200 ppm [1] | inhibition of growth at 20 ppm [2] | pest or weed control at 200 ppm [3]

CCCN(Cc1ccc(-c2noc(C(F)(F)F)n2)cc1)C(=O)C1CC1(F)F (stereo not shown) [Compound 1.652, 2,2-difluoro-N-propyl-N-[[4-[5-(trifluoromethyl)-1,2,4-oxadiazol-3-yl]phenyl]methyl]-cyclopropane-carboxamide]
≥ 80%: pest or weed control at 200 ppm (Phakopsora Pachyrhizi) | pest or weed control at 200 ppm [1] | inhibition of growth at 20 ppm [2] | pest or weed control at 200 ppm [3]

C#CCN(Cc1ccc(-c2noc(C(F)(F)F)n2)cc1)C(=O)C(CC)COC (stereo not shown) [Compound 1.194, 2-(methoxymethyl)-N-prop-2-ynyl-N-[[4-[5-(trifluoromethyl)-1,2,4-oxadiazol-3-yl]phenyl]methyl]-butanamide]
≥ 80%: pest or weed control at 200 ppm (Phakopsora Pachyrhizi) | pest or weed control at 200 ppm [1] | inhibition of growth at 20 ppm [2] | pest or weed control at 200 ppm [3]

COCCC(=O)N(Cc1ccc(-c2noc(C(F)(F)F)n2)cc1)C1COC1 [Compound 1.741, 3-methoxy-N-(oxetan-3-yl)-N-[[4-[5-(trifluoromethyl)-1,2,4-oxadiazol-3-yl]phenyl]methyl]-propanamide]
≥ 80%: pest or weed control at 200 ppm (Phakopsora Pachyrhizi) | pest or weed control at 200 ppm [1] | inhibition of growth at 20 ppm [2] | pest or weed control at 200 ppm [3]
